These results are taken from article PMC5408233, “Marine Cyclic Guanidine Alkaloids Monanchomycalin B and Urupocidin A Act as Inhibitors of TRPV1, TRPV2 and TRPV3, but not TRPA1 Receptors” (Marine Drugs, 2017).

Read-outs that look alike come from different tables or passages of the source.

For series [1], the target named is T1, rat TRPV1 (rTRPV1) (Rattus norvegicus, UniProt O35433).
T1 construct: expressed in transfected cells
The series can be described thus: Fluo-4 intracellular calcium assay, inhibition of capsaicin-induced [Ca2+] response in CHO cells expressing rTRPV1. Type of series: cell-based. How it is done: (§1) The guanidine alkaloids (1–4) were tested on inhibitory activities against rTRPV1 (Figure 2A), mTRPV2 (Figure 2B), hTRPV3 (Figure 2C) and rTRPA1 receptors expressed in CHO (Chinese hamster ovary) cells in a Fluo-4–based intracellular calcium assay.
(§2) Figure 2 Dose-response curves for monanchomycalin B (1), urupocidin A (2), semi-synthetic urupocidin A derivatives (3, 4) inhibitory activity on agonist-induced [Ca^2+] responses in CHO cells expressing rTRPV1 (A); mTRPV2 (B); hTRPV3 (C). Responses were measured as the pseudo-ratio (ΔFI/FI) determined using the following formula ΔFI/FI = (FI-FIbase)/FIbase, where FI is the measured peak fluorescence intensity, Fbase is the fluorescence intensity in non-stimulated cells. Inhibitory activity was expressed as the percentage of the response in the control experiment (untreated by alkaloids cells). Data are expressed as mean ± s.e. (n = 4–8).
(§3) The effect of 1–4 on all the TRP-expressing cells was measured after preincubation at 37 °C for 30 min for standardization. […] Capsazepine (CZP) or non-specific blocker ruthenium red (RR) were used as a positive control for TRPV1 and for the other studied TRP receptors correspondingly.
(§4) The mouse TRPV2 gene was cloned form pancreatic beta cell line MIN6 and the CHO cell line stably expressing mouse TRPV2 was generated using T-Rex System (Thermo Fisher Scientific Inc., Waltham, MA, USA) similarly previously obtained stable cell lines for rat TRPV1, human TRPV3 and rat TRPA1 [6, 8]. Fluorescent assays were performed as described in [6]. The alkaloid’s solutions of desired concentration were obtained by serial dilution of water stock solutions (10 mg/mL) in calcium assay buffer (10 mM HEPES/HBSS, pH 7.4). The buffer alone (negative control) or serial dilutions of alkaloids 1–4 (20 μl) were added to the cells loaded with the cytoplasmic calcium indicator Fluo-4AM using Fluo-4 Direct™ Calcium Assay Kit (Thermo Fisher Scientific Inc., Waltham, MA, USA) (80 μl) and the cells were incubated 30 min at 37 °C. Changes in cell fluorescence (λex = 485 nm, λem = 520 nm) were monitored using NOVO star (BMG LABTECH, Ortenberg, Germany) before and after the addition of relevant agonist (500 nM capsaicin for rTRPV1, 300 μM 2APB for mTRPV2, 200 μM 2APB for hTRPV3, 100 μM AITC for rTRPA1) at 25 °C. Average cell responses to agonists in controls were about 60, 45, 40, 85% of the responses produced by 5 μM ionomycin for rTRPV1, mTRPV2, hTRPV3, rTRPA1 correspondingly. To avoid the spread of the data due to prolonged instrumental measurement each experimental point has control in the nearest plate wells. Curve fitting and parameter estimations were performed with Microsoft Excel 2007 (Microsoft Corporation, Redmond, WA, USA) and Origin 7.0 (OriginLab Corporation, Northampton, MA, USA). The EC50 values were determined as the concentration of test substance required to produce half-maximal decreases in [Ca^2+].
Background: A change in cytosolic calcium serves as a functional read-out for many receptors and channels.

Series [2] concerns the target T2, human TRPV3 (hTRPV3) (Homo sapiens, UniProt Q8NET8).
T2 construct: expressed in transfected cells
T2 sequence (Q8NET8 1-790): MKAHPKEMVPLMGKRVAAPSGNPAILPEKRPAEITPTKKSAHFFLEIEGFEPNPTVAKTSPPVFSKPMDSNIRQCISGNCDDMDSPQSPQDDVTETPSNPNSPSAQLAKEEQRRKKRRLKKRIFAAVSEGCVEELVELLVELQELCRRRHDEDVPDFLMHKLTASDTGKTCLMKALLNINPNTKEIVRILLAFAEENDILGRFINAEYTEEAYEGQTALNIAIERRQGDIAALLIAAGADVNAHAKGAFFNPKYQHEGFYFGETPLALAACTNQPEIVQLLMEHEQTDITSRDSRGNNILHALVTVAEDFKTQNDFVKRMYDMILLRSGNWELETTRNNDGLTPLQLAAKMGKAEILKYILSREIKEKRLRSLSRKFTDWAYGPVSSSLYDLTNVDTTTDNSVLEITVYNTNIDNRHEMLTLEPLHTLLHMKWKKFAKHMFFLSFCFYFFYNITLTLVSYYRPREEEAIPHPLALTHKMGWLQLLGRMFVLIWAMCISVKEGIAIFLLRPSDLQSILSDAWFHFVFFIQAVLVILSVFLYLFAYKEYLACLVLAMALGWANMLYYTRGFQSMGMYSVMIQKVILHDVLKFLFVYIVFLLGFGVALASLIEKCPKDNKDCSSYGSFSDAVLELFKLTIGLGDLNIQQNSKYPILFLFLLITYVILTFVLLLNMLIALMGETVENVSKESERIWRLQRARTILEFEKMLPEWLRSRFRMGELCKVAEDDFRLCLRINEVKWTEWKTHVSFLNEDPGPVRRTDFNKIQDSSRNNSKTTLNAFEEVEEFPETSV
Kind of series: Fluo-4 intracellular calcium assay, inhibition of 2APB-induced [Ca2+] response in CHO cells expressing hTRPV3. Type of series: cell-based. How it is done: as §1, §2, §3, §4

The target in series [3] is T3, rat TRPA1 (rTRPA1) (Rattus norvegicus, UniProt Q6RI86).
T3 construct: expressed in transfected cells
Kind of series: Fluo-4 intracellular calcium assay, inhibition of AITC-induced [Ca2+] response in CHO cells expressing rTRPA1. Particulars: for EC50 (µM) rTRPA1: inhibitory activity, CHO cells expressing rTRPA1, agonist 100 μM AITC, preincubation 30 min at 37 °C. Type of series: cell-based. How it is done:
as §1, §3, §4

Series [4] concerns HL-60 human leukemia cells. Further details: method as in doi:10.1016/j.tetlet.2012.05.162. The conditions noted are these: cited from earlier work.
In series [5] the target is T4, mouse TRPV2 (mTRPV2) (Mus musculus, UniProt Q9WTR1).
T4 construct: expressed in transfected cells
T4 sequence (Q9WTR1 1-756): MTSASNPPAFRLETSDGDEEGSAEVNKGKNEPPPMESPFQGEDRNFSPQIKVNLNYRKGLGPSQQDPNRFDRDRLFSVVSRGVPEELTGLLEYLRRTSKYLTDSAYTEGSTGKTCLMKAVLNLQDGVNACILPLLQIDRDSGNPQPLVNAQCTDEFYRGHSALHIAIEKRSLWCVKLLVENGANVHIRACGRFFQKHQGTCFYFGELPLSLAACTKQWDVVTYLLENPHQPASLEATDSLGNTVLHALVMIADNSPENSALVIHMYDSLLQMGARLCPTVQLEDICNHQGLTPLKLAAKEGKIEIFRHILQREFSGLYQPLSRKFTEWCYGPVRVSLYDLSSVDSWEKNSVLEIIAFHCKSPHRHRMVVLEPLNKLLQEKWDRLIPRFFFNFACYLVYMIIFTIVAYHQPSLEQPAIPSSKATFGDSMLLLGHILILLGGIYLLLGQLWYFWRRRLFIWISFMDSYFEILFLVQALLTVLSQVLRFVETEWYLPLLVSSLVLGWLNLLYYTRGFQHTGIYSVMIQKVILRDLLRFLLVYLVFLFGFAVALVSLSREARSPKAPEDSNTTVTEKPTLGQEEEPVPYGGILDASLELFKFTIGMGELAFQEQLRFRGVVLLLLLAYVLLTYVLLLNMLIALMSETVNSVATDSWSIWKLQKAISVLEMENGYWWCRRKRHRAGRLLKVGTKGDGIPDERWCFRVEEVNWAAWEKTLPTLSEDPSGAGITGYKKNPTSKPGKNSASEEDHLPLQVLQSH
The series can be described thus: Fluo-4 intracellular calcium assay, inhibition of 2APB-induced [Ca2+] response in CHO cells expressing mTRPV2. Type of series: cell-based. The method, then:
as §1, §2, §3
The mouse TRPV2 gene was cloned form pancreatic beta cell line MIN6 and the CHO cell line stably expressing mouse TRPV2 was generated using T-Rex System (Thermo Fisher Scientific Inc., Waltham, MA, USA) similarly previously obtained stable cell lines for rat TRPV1, human TRPV3 and rat TRPA1 [6, 8]. Fluorescent assays were performed as described in [6]. […] Changes in cell fluorescence (λex = 485 nm, λem = 520 nm) were monitored using NOVO star (BMG LABTECH, Ortenberg, Germany) before and after the addition of relevant agonist (500 nM capsaicin for rTRPV1, 300 μM 2APB for mTRPV2, 200 μM 2APB for hTRPV3, 100 μM AITC for rTRPA1) at 25 °C. […] The EC50 values were determined as the concentration of test substance required to produce half-maximal decreases in [Ca^2+].

In series [6] the target is T2, human TRPV3 (hTRPV3). Further details: method as in doi:10.1007/s10600-015-1243-6, doi:10.1016/j.tetlet.2012.12.099. Particulars: determined in the same test system; read-out: EC50, inhibitory activity toward hTRPV3; cited from earlier work.
Series [7] has as its target T1, rat TRPV1 (rTRPV1). Further details: method as in doi:10.1007/s10600-015-1243-6, doi:10.1016/j.tetlet.2012.12.099. The conditions noted are these: determined in the same test system; read-out: EC50, inhibitory activity against rTRPV1; cited from earlier work.
Series [8] addresses T3, rat TRPA1 (rTRPA1). Further details: method as in doi:10.1007/s10600-015-1243-6. Particulars: read-out: EC50, inhibition of rTRPA1; cited from earlier work.
The mark [9] stands for this setting: inhibitory activity, CHO cells expressing hTRPV3, agonist 200 μM 2APB, preincubation 30 min at 37 °C, mean ± s.e., read-out: EC50 (µM) hTRPV3.
[10] abbreviates: inhibitory activity, CHO cells expressing rTRPV1, agonist 500 nM capsaicin, preincubation 30 min at 37 °C, mean ± s.e., read-out: EC50 (µM) rTRPV1.
[11] abbreviates: 20 µM RR, positive control, data not shown.

T1 sequence (O35433 whole entry): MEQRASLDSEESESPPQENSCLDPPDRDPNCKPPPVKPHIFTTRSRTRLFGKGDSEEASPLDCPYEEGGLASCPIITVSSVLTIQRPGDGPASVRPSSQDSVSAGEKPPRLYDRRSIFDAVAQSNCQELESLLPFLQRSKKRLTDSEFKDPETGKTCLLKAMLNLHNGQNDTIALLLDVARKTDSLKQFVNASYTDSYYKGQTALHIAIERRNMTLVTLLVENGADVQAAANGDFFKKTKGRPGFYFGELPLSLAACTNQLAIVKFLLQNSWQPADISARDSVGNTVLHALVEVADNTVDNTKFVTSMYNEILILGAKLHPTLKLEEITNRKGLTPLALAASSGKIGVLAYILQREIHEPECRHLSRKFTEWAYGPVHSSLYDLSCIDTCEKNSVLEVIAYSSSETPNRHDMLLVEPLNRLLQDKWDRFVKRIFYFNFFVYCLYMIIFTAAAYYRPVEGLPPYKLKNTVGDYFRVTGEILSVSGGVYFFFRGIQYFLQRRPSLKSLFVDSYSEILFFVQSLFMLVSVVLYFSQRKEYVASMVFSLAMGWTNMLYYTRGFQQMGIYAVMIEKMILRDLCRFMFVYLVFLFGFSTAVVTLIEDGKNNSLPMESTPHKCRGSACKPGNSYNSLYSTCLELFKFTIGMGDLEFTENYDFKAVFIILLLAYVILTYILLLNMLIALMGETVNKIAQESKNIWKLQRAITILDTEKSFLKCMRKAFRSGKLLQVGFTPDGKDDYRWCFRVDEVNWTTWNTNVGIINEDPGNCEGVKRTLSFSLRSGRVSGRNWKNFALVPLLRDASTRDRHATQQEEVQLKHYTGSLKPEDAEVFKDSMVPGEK
T3 sequence (Q6RI86 whole entry): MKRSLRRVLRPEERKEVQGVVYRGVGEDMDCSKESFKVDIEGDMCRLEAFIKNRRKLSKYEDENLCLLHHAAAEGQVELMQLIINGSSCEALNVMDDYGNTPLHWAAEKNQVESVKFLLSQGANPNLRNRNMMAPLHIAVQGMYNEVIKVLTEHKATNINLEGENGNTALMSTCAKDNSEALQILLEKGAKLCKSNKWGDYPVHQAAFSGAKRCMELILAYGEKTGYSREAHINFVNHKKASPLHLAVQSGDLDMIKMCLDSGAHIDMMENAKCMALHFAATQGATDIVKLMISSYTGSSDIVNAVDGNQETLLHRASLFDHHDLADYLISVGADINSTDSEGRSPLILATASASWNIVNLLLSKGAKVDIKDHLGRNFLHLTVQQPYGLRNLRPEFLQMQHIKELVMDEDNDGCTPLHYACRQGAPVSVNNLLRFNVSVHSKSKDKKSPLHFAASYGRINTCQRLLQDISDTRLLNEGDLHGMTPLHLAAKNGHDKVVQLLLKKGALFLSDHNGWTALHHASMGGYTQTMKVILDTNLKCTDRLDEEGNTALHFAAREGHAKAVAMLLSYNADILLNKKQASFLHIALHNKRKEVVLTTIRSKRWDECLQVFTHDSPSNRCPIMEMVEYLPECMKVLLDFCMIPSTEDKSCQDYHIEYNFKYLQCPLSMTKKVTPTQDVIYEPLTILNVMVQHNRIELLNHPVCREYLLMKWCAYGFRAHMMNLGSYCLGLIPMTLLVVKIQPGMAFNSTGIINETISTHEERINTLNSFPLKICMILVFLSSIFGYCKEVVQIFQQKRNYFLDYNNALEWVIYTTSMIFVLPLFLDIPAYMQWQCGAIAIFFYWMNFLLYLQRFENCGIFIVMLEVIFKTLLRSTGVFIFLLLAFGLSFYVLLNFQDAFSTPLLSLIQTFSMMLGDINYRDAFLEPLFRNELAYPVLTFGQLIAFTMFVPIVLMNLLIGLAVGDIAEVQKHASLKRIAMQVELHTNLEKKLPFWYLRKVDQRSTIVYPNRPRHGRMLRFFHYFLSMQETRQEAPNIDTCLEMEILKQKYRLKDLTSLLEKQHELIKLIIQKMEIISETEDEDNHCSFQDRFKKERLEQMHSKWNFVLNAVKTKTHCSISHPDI

For the compound `Oc1cc2c(cc1O)CN(C(=S)NCCc1ccc(Cl)cc1)CCC2` [CZP, Capsazepine, reference compound], the “Inhibition of the [Ca2+] response induced by specific agonist (TRPV1)” value in series [1] (10 µM CZP, positive control, data not shown) is “full inhibition”.

For the compound `CCC=CC1CCC2(CC3CCC4C(C(=O)OCCCCCCCCCCCCCCCC(=O)N(CCCN)CCCCN)C5(CCCC(C)O5)NC(=[N+]34)N2)O1` (stereo not drawn) [Compound 1, monanchomycalin B], the EC50 (in general, the concentration giving half of the maximal effect) in series [2] is 3.25 ± 0.6 µM; in series [1], 6.02 ± 0.36 µM; in series [5] it was 2.84 ± 1.01 µM. Further, the “EC50 (µM) rTRPA1” value in series [3] was “not active”. Besides, the “Cytotoxic activities against HL-60 human leukemia cells” value in series [4] is on record as “potent cytotoxic activities”.

For the compound `CCC/C=C\CC[C@@H](O)C[C@H]1CCC2=C(C(=O)OCCCCN(O)C(=N)N)[C@H](CC/C=C\CCC)NC(=N)N21` [Compound 2, urupocidin A], the EC50 in series [2] (setting [9]) was determined as 23.6 ± 2.03 µM; in series [1] (setting [10]), 21.5 ± 2.51 µM; in series [5] (inhibitory activity, CHO cells expressing mTRPV2, agonist 300 μM 2APB, preincubation 30 min at 37 °C, mean ± s.e., read-out: EC50 (µM) mTRPV2), 28.1 ± 6.65 µM. The “EC50 (µM) rTRPA1” value in series [3] is reported as “not active”.

For `CCCCCCC[C@@H](O)C[C@H]1CCC2=C(C(=O)OCCCCN(O)C(=N)N)[C@H](CCCCCCC)NC(=N)N21` [Compound 3, Tetrahydrourupocidin A], the EC50 in series [2] (setting [9]) amounted to 29.2 ± 3.18 µM; in series [1] (setting [10]), 52.8 ± 5.31 µM. In addition, the “EC50 (µM) rTRPA1” value in series [3] is on record as “not active”.

`CCC/C=C\CC[C@@H](O)C[C@H]1CCC2=C(C(=O)OC)[C@H](CC/C=C\CCC)NC(=N)N21` [Compound 4]: the “EC50 (µM) hTRPV3” value in series [2] (inhibitory activity, CHO cells expressing hTRPV3, agonist 200 μM 2APB, preincubation 30 min at 37 °C, mean ± s.e.) was “almost not active”. In addition, the EC50 in series [2] (setting [9]) is 193 ± 25.5 µM; in series [1] (setting [10]), 435 ± 49.9 µM. Moreover, the “EC50 (µM) rTRPV1” value in series [1] (inhibitory activity, CHO cells expressing rTRPV1, agonist 500 nM capsaicin, preincubation 30 min at 37 °C, mean ± s.e.) is recorded as “almost not active”. Also, in series [3], the “EC50 (µM) rTRPA1” value was “not active”.

Take `N.N.N.N.N.N.N.N.N.N.N.N.N.N.[Cl-].[Cl-].[Cl-].[Cl-].[Cl-].[Cl-].[O-2].[O-2].[Ru+3].[Ru+3].[Ru+4]` [RR, ruthenium red, reference compound]: the “Inhibition of the [Ca2+] response induced by specific agonist (TRPV3)” value in series [2] (setting [11]) was “full inhibition”. Further, in series [3] (setting [11]), the “Inhibition of the [Ca2+] response induced by specific agonist (TRPA1)” value is given as “full inhibition”. Besides, the “Inhibition of the [Ca2+] response induced by specific agonist (TRPV2)” value in series [5] (setting [11]) is “full inhibition”.

Take `C1=C/[C@H]2[C@@H]3CCCC[C@H]3C[C@@H]2NCCCN[C@@H]2C[C@@H]3CCCC[C@H]3[C@@H]2/C=C/1` [haliclonadiamine]: the EC50 is 77 µM in series [6], 19.9 µM in series [7] and 86.7 µM in series [8].

In the case of pulchranin A, the EC50 in series [6] is 71.8 µM; in series [7], 27.5 µM; in series [8] it was 174 µM.
